# Reference: patent US6686341B1, “Nutritional compositions which contain slightly negatively charged, non-digestible polysaccharides and use thereof for reducing transport through tight junctions” (N.V. Nutricia, priority 1999, dated 2004)
# System: tight junctions (duodenum biopsies)
# Assay: Ussing chamber: HRP permeability of duodenum suction biopsies from children suffering from microvillus inclusion disease
# Assay type: cell-based, human
# Settings: after adding 4.2 g to the luminal compartment
# Text: Suction biopsies of the duodenum were taken from two children suffering from microvillus inclusion disease.
substance,measurement,value
carboxydextran [70 kD carboxydextran],HRP in the paracellular spaces or tight junctions by electron microscopy,No further HRP could be detected
